Results from ChEMBL document CHEMBL6092168, “Identification of novel indolinone derivatives as CTSC inhibitors to treat inflammatory bowel disease by modulating inflammatory factors” (Eur J Med Chem, 2024).
Calls of active or inactive are those of the source. The calls are words filed in the database; no cut-off is given here.

How the values were obtained:
RAW264.7 [1] = assay: Anti-inflammatory activity in mouse RAW264.7 cells assessed as inhibition of LPS-induced NO production preincubated for 1 hr followed by LPS addition and measured after 24 hrs by Griess reagent based assay; type: functional, cell-based
RAW264.7 [2] = assay: Anti-inflammatory activity in mouse RAW264.7 cells assessed as inhibition of LPS-induced IL-1beta production at 5 uM preincubated for 1 hr followed by LPS addition and measured after 24 hrs by ELISA relative to control; type: functional; parameters: scale not given: the % may be the effect or the level left; conditions: time 25 hrs
RAW264.7 [3] = assay: Anti-inflammatory activity in mouse RAW264.7 cells assessed as inhibition of LPS-induced TNF-alpha production at 5 uM preincubated for 1 hr followed by LPS addition and measured after 24 hrs by ELISA relative to control; type: functional; parameters: scale not given: the % may be the effect or the level left; conditions: time 25 hrs
[4] = target: T1, Myeloblastin (Mus musculus) (UniProt Q61096); assay: Induction of proteinase 3 degradation in C57BL/6 mouse bone marrow cells assessed as residual activity at 10 uM incubated for 48 hrs by Western blot analysis relative to control; type: cell-based; conditions: Bone marrow cell
T1 sequence (whole entry): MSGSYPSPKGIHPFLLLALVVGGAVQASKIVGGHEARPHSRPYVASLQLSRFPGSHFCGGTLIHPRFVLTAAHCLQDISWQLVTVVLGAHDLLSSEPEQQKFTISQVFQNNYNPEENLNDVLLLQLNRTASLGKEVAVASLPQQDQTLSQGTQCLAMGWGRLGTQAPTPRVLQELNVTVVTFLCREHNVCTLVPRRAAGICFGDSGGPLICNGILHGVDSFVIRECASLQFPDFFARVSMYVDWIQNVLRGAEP

[5] = AUC (0 to infinity) in male Sprague-Dawley rat at 2 mg/kg, iv measured at 5 to 1440 mins by LC-MS/MS analysis; type: ADME, organism-based; conditions: in vivo, time 5-1440 min
[6] = target: T2, Dipeptidyl peptidase 1 (Mus musculus) (UniProt P97821); assay: In vivo inhibition of Cathepsin C in C57BL/6 mouse assessed as reduction in cathepsin C activity in blood at 15 mg/kg, po administered once daily for 6 days by fluorescence based microplate reader relative to control; type: functional, organism-based; conditions: time 6.0 day
T2 sequence (whole entry): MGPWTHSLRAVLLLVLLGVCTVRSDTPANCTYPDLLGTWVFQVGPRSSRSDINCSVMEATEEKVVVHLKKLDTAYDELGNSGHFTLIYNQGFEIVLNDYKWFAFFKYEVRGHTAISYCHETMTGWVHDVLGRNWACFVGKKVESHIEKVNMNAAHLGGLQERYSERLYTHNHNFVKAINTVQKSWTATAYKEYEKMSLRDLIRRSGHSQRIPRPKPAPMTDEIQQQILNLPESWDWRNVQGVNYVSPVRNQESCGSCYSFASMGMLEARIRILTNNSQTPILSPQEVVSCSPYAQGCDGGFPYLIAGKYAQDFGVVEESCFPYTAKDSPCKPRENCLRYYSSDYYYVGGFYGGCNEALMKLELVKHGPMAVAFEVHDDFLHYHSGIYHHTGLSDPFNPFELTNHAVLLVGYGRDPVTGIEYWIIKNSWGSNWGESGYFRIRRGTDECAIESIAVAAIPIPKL

[7] = target: T1, Myeloblastin (Mus musculus); assay: In vivo inhibition of proteinase 3 in C57BL/6 mouse assessed as reduction in proteinase 3 activity in blood at 30 mg/kg, po administered once daily for 6 days by fluorescence based microplate reader relative to control; type: functional, organism-based; conditions: time 6.0 day
[8] = target: T2, Dipeptidyl peptidase 1 (Mus musculus); assay: In vivo inhibition of Cathepsin C in C57BL/6 mouse assessed as reduction in cathepsin C activity in bone marrow at 30 mg/kg, po administered once daily for 6 days by fluorescence based microplate reader relative to control; type: functional, organism-based; conditions: time 6.0 day
RAW264.7 [9] = assay: Anti-inflammatory activity in LPS-stimulated mouse RAW264.7 cells assessed as reduction in IL-1 beta production incubated for 24 hrs by ELISA; type: functional, cell-based; conditions: dose 0.62-5 µM
[10] = Acute toxicity in ICR mouse assessed as body weight loss at 1500 mg/kg, po administered daily for 7 days; type: organism-based; conditions: in vivo, 168 h, time 7 day
[11] = Apparent permeability in human Caco-2 cells incubated for 90 min by LC-MS/MS analysis; type: ADME, cell-based
Mus musculus [12] = assay: Anti-inflammatory activity in DSS-induced ulcerative colitis male C57BL/6 mouse model assessed as reduction in disease activity index (DAI) score at 60 mg/kg administered via gavage for 10 days; type: functional, organism-based; conditions: time 10.0 day
Mus musculus [13] = assay: Anti-inflammatory activity in DSS-induced ulcerative colitis male C57BL/6 mouse model assessed as reduction in inflammatory epithelial destruction in colon at 60 mg/kg administered via gavage for 10 days by H and E staining based analysis; type: functional, organism-based; conditions: time 10.0 day
Mus musculus [14] = assay: Anti-inflammatory activity in DSS-induced ulcerative colitis male C57BL/6 mouse model assessed as reduction in crypt loss in colon at 60 mg/kg administered via gavage for 10 days by H and E staining based analysis; type: functional, organism-based; conditions: time 10.0 day
Mus musculus [15] = assay: Anti-inflammatory activity in DSS-induced ulcerative colitis male C57BL/6 mouse model assessed as reduction in IL-1 beta expression in serum administered via gavage for 10 days by ELISA; type: functional, organism-based; conditions: dose 15-60 mg/kg, time 10.0 day
Mus musculus [16] = assay: Anti-inflammatory activity in DSS-induced ulcerative colitis male C57BL/6 mouse model assessed as reduction in IL-6 expression in colon administered via gavage for 10 days by ELISA; type: functional, organism-based; conditions: dose 15-60 mg/kg, time 10.0 day
Mus musculus [17] = assay: Anti-inflammatory activity in DSS-induced ulcerative colitis male C57BL/6 mouse model assessed as reduction in GM-CSF expression in colon administered via gavage for 10 days by ELISA; type: functional, organism-based; conditions: dose 15-60 mg/kg, time 10.0 day
Mus musculus [18] = assay: Anti-inflammatory activity in DSS-induced ulcerative colitis male C57BL/6 mouse model assessed as reduction in Cathepsin G level in colon at 60 mg/kg administered via gavage for 10 days relative to control; type: functional; parameters: scale not given: the % may be the effect or the level left; conditions: time 10 day
Mus musculus [19] = assay: Anti-inflammatory activity in DSS-induced ulcerative colitis male C57BL/6 mouse model at 60 mg/kg administered twice daily; type: functional, organism-based
[20] = target: T3, Neutrophil elastase (Mus musculus) (UniProt Q3UP87); assay: Induction of neutrophil elastase degradation in C57BL/6 mouse bone marrow cells at 10 uM incubated for 24 hrs by Western blot analysis; type: cell-based; conditions: Bone marrow cell
T3 sequence (whole entry): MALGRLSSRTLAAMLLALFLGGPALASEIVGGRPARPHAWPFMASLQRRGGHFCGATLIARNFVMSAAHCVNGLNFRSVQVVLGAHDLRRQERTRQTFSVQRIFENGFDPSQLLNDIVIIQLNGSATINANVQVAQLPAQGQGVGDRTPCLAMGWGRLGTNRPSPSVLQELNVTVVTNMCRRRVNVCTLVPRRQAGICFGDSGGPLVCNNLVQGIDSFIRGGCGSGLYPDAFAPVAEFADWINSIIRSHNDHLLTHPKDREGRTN

[21] = Acute toxicity in ICR mouse assessed as body weight loss at 500 mg/kg, po administered twice daily for 7 days; type: organism-based; conditions: in vivo, 168 h, time 7 day
Mus musculus [22] = assay: Anti-inflammatory activity in DSS-induced ulcerative colitis male C57BL/6 mouse model assessed as increase in colon length administered via gavage for 10 days; type: functional, organism-based; conditions: dose 15-60 mg/kg, time 10.0 day
Mus musculus [23] = assay: Anti-inflammatory activity in DSS-induced ulcerative colitis C57BL/6 mouse model assessed as effect on inflammatory factors at 60 mg/kg, administered twice daily; type: functional, organism-based

O=C1Nc2c(cccc2-c2ccc(NC3CCOCC3)cc2)/C1=C/c1ccnc2ccccc12
IC50 (RAW264.7 [1]): 5.5 µM
Activity (RAW264.7 [2]): 90.5%
Activity (RAW264.7 [3]): 83.6%
Activity [4]: 8.71%
AUC [5]: 915.64 µg·h/L
inhibition [6]: < 50%
inhibition [7]: 44.8%
inhibition [8]: 36.5%
Activity (RAW264.7 [9]): Dose-dependent-effect
Activity [10]: Non-toxic
Papp at 1.5 h [11]: 3.2 ×10⁻⁶ cm/s
Activity (Mus musculus [12]): Active
Activity (Mus musculus [13]): Active
Activity (Mus musculus [14]): Active
Activity (Mus musculus [15]): Dose-dependent-effect; Significant Reduction Observed In High Dose Group
Activity (Mus musculus [16]): Dose-dependent-effect; Significant Reduction Observed In High Dose Group
Activity (Mus musculus [17]): Dose-dependent-effect; Significant Reduction Observed In High Dose Group
Activity (Mus musculus [18]): 51%
Activity (Mus musculus [19]): Active; Therapeutic Effect Is Slightly Better Than 5-Asa But Worse Than Azd7986
Activity [20]: Active
Activity [21]: Non-toxic
Activity (Mus musculus [22]): Dose-dependent-effect
Activity (Mus musculus [23]): Active
